Measured values taken from paper PMC10650955, “α-Aminophosphonate inhibitors of metallo-β-lactamases NDM-1 and VIM-2” (RSC Medicinal Chemistry, 2023).
Where a name gives a salt, the structure may show the parent alone.

Columns and labels:
NDM-1 = molecular target: T1, NDM-1 (Klebsiella pneumoniae, UniProt C7C422); assay: Dose rate inhibition studies for IC50 determination, NDM-1 enzymatic assay; format: biochemical; settings: inhibitor 0-800 μM, 3 parallel measurements, N.I. = no enzyme inhibitory activity observed; for IC50: Enzyme IC50 NDM-1, 10 nM NDM-1, 100 μM ZnCl2, imipenem substrate; for Enzyme IC50 NDM-1: 10 nM NDM-1, 100 μM ZnCl2, imipenem substrate
T1 construct: made in house
Procedure: (§1) The […] synthesized compounds 5a–l were tested for their inhibitory activities against NDM-1, VIM-2 (Table 1), and GIM-1 in an in vitro enzymatic assay (ESI ^†).[41] The inhibitory activity was measured using enzyme concentrations of 0.1 nM VIM-2, 10 nM NDM-1 or 1 nM GIM-1, with an excess Zn(II) (100 μM, see Experimental methods), with inhibitor compounds with concentrations from 0 to 800 μM. Each data point was measured in triplicates. […] This is in line with previous reports.[42,43]
(§2) A 100 μl solution with buffer (50 mM HEPES (pH 7.2), 100 μM ZnCl2, 2.5% DMSO), purified enzyme (0.1 nM VIM-2, 10 nM NDM-1 or 1 nM GIM-1) and 800–0 μM inhibitor was incubated in a 96 well plate at 25 °C for 5 min. In addition, the enzyme buffer contained 400 μg ml^−1 bovine serum albumin (BSA) to prevent protein unfolding and loss of activity due to low concentrations.[67,68] 100 μM of the reporter substrate nitrocefin (VIM-2, GIM-1) or imipenem (NDM-1) was added to the enzyme–inhibitor solution and the increase in absorbance at 482 nm (nitrocefin) or 300 nm (imipenem) was recorded on a Spectramax M4 spectrophotometer (Molecular Devices). Each data point was performed in triplicates and the initial velocity for each inhibitor concentration was analyzed by a log [inhibitor] vs. response curve fitting to calculate IC50 in GraphPad Prism 9.2 software.

VIM-2 = molecular target: T2, VIM-2 (Escherichia coli, UniProt Q5U7L7); assay: Dose rate inhibition studies for IC50 determination, VIM-2 enzymatic assay; format: biochemical; settings: inhibitor 0-800 μM, 3 parallel measurements, N.I. = no enzyme inhibitory activity observed; for Enzyme IC50 VIM-2: 0.1 nM VIM-2, 100 μM ZnCl2, nitrocefin substrate; for IC50: Enzyme IC50 VIM-2, 0.1 nM VIM-2, 100 μM ZnCl2, nitrocefin substrate
T2 construct: made in house
Procedure: as §1, §2

T1 sequence (C7C422 29-270 limits assumed): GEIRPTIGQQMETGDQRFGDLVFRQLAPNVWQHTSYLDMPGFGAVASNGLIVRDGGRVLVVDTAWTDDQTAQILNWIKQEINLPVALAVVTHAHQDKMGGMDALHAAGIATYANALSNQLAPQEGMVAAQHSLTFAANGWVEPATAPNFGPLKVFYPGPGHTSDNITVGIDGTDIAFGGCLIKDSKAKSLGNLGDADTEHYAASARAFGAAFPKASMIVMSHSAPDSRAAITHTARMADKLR

Row | Structure (SMILES) | IC50 (NDM-1) [µM] | Enzyme IC50 VIM-2 (VIM-2) | Enzyme IC50 NDM-1 (NDM-1) | IC50 (VIM-2) [µM]
1 | Cl.O=C(Cc1csc2ccccc12)NC(C1CCCCN1)P(=O)(O)O (centres unmarked) [Compound 5l-1, ((2-(Benzo[b]thiophen-3-yl)acetamido)(piperidin-2-yl)methyl)phosphonic acid hydrochloride] | 7.9 ± 1.6 | N.I. | – | –
2 | O=C(NC(C1CCCCN1)P(=O)(O)O)c1csc2ccccc12 (centres unmarked) [Compound 5h-1, ((Benzo[b]thiophene-3-carboxamido)(piperidin-2-yl)met-hyl)phosphonic acid hydrochloride] | – | – | N.I. | 40.6 ± 3.9
3 | O=C(NC(C1CCCCN1)P(=O)(O)O)c1csc2ccccc12 (centres unmarked) [Compound 5h-2, ((Benzo[b]thiophene-3-carboxamido)(piperidin-2-yl)met-hyl)phosphonic acid hydrochloride] | – | – | N.I. | 11.6 ± 4.7
4 | O=C(NC(C1CCCCN1)P(=O)(O)O)c1ccsc1 (centres unmarked) [Compound 5c-2, (Piperidin-2-yl(thiophene-3-carboxamido)methyl)phos-phonic acid hydrochloride] | – | – | N.I. | 14.6 ± 2.3
5 | O=C(Cc1cc2ccccc2s1)NC(C1CCCCN1)P(=O)(O)O (single isomer, unassigned) [Compound 5k-2, ((2-(Benzo[b]thiophen-2-yl)acetamido)(piperidin-2-yl)methyl)phosphonic acid hydrochloride] | – | – | – | 28.7 ± 10.1
6 | Cl.O=C(NC(C1CCCCN1)P(=O)(O)O)c1cc2c(s1)CCCC2 (centres unmarked) [Compound 5d-2, (Piperidin-2-yl(4,5,6,7-tetrahydrobenzo[b]thiophene-2-carboxamido)methyl)phosphonic acid hydrochloride] | – | – | N.I. | 4.5 ± 0.8
7 | O=C(NC(C1CCCCN1)P(=O)(O)O)c1cc2ccccc2s1 (centres unmarked) [Compound 5g-1, ((Benzo[b]thiophene-2-carboxamido)(piperidin-2-yl)methyl)phosphonic acid hydrochloride] | 46.7 ± 9.7 | – | – | 45 ± 5
8 | O=C(Cc1ccsc1)NC(C1CCCCN1)P(=O)(O)O (centres unmarked) [Compound 5j-2, (Piperidin-2-yl(2-(thiophen-3-yl)acetamido)methyl)phos-phonic acid hydrochloride] | – | N.I. | N.I. | –
9 | Cl.O=C(NC(C1CCCCN1)P(=O)(O)O)c1cc2c(s1)CCCC2 (centres unmarked) [Compound 5d-1, (Piperidin-2-yl(4,5,6,7-tetrahydrobenzo[b]thiophene-2-carboxamido)methyl)phosphonic acid hydrochloride] | – | – | N.I. | 244 ± 35
10 | Cc1[nH]c(=S)sc1CC(=O)NC(C1CCCCN1)P(=O)(O)O (centres unmarked) [Compound 5a-2, ((2-(4-Methyl-2-thioxo-2,3-dihydrothiazol-5-yl)acet-amido)(piperidin-2-yl)methyl)phosphonic acid hydro-chloride] | – | N.I. | N.I. | –
11 | Cl.O=C(NC(C1CCCCN1)P(=O)(O)O)c1scc2c1CCCC2 (single isomer, unassigned) [Compound 5f-1, (Piperidin-2-yl(4,5,6,7-tetrahydrobenzo[c]thiophene-1-carboxamido)methyl)phosphonic acid hydrochloride] | – | – | N.I. | 37 ± 3
12 | Cl.O=C(NC(C1CCCCN1)P(=O)(O)O)c1csc2c1CCCC2 (single isomer, unassigned) [Compound 5e-2, (Piperidin-2-yl(4,5,6,7-tetrahydrobenzo[b]thiophene-3-carboxamido)methyl)phosphonic acid hydrochloride] | – | – | N.I. | 46.1 ± 15.6
13 | O=C(Cc1csc2ccccc12)NC(C1CCCCN1)P(=O)(O)O (centres unmarked) [Compound 5l-2, ((2-(Benzo[b]thiophen-3-yl)acetamido)(piperidin-2-yl)methyl)phosphonic acid hydrochloride] | 27.8 ± 21 | – | – | 94.4 ± 5.8
14 | O=C(NC(C1CCCCN1)P(=O)(O)O)c1csc2c1CCCC2 (single isomer, unassigned) [Compound 5e-1, (Piperidin-2-yl(4,5,6,7-tetrahydrobenzo[b]thiophene-3-carboxamido)methyl)phosphonic acid hydrochloride] | – | – | – | 69.7 ± 26.2
